Data: patent publication US20230416225A1, “DIAMINOPYRIMIDINE CARBOXAMIDE INHIBITORS OF HPK1” (MERCK SHARP & DOHME LLC, priority 2020, published 2023)

Biological target: T1, Human HPK1, catalytic domain (Homo sapiens, UniProt Q92918)
T1 construct: purchased Carna
T1 sequence (Q92918 1-346): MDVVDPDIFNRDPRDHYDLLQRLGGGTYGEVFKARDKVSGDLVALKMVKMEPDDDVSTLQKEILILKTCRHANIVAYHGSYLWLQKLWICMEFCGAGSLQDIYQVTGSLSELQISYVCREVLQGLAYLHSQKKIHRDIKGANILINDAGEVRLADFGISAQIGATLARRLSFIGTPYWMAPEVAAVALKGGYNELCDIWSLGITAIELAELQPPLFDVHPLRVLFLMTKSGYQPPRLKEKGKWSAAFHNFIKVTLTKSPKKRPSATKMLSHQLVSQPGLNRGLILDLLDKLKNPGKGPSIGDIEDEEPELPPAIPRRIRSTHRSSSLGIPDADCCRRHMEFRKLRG
Experiment: HPK1-SLP76 TR-FRET assay
Type: biochemical
Conditions: 75 pM HPK1, 10 uM ATP, 10 nM SLP76, 30 min compound pre-incubation

| IC50 [nM] | SMILES |
| --- | --- |
| 1.22 | NC(=O)c1cnc(Nc2cccc(F)c2)nc1Nc1cccc2c1CCNC2=O [Example 25-10, 2-[(3-fluorophenyl)amino]-4-[(1-oxo-1,2,3,4-tetrahydroisoquinolin-5-yl)amino]pyrimidine-5-carboxamide] |
| 2.08 | C#CC[C@H]1CCC[C@H]1Nc1nc(Nc2cc3c(cc2OC)CCN(C)C3)ncc1C(N)=O [Example 26-40, 2-[(6-methoxy-2-methyl-1,2,3,4-tetrahydroisoquinolin-7-yl)amino]-4-{[(1R,2R)-2-(prop-2-yn-1-yl)cyclopentyl]amino}pyrimidine-5-carboxamide] |
| 41.3 | COc1ncccc1Nc1ncc(C(N)=O)c(Nc2cccc3c2CCNC3=O)n1 [Example 25-45, 2-[(2-methoxypyridin-3-yl)amino]-4-[(1-oxo-1,2,3,4-tetrahydroisoquinolin-5-yl)amino]pyrimidine-S-carboxamide] |
| 92.1 | NC(=O)c1cnc(Nc2ccc3c(c2)COC3=O)nc1N[C@H](CO)c1ccccc1 [Example 26-44, 4-{[(1S)-2-hydroxy-1-phenylethyl]amino}-2-[(1-oxo-1,3-dihydro-2-benzofuran-5-yl)amino]pyrimidine-5-carboxamide] |
| 0.29 | COc1cc2c(cc1Nc1ncc(C(N)=O)c(Nc3cccc(F)c3)n1)CN(C)CC2 [Example 7-18, 4-[(3-fluorophenyl)amino]-2-[(6-methoxy-2-methyl-1,2,3,4-tetrahydroisoquinolin-7-yl)amino]pyrimidine-5-carboxamide] |
| 89.9 | NC(=O)c1cnc(Nc2cccc(C(F)(F)F)c2F)nc1Nc1cccc2c1CCNC2=O [Example 25-42, 2-{[2-fluoro-3-(trifluoromethyl)phenyl]amino}-4-[(1-oxo-1,2,3,4-tetrahydroisoquinolin-5-yl)amino]pyrimidine-5-carboxamide] |
| 2.78 | N#CC1(c2cccc(Nc3ncc(C(N)=O)c(Nc4cccc5c4CCNC5=O)n3)c2)CC1 [Example 25-4, 2-{[3-(1-cyanocyclopropyl)phenyl]amino}-4-[(1-oxo-1,2,3,4-tetrahydroisoquinolin-5-yl)amino]pyrimidine-5-carboxamide] |
| 0.09 | COc1cc2c(cc1Nc1ncc(C(N)=O)c(Nc3ccccc3Br)n1)CNCC2 [Example 9-1, 4-[(2-bromophenyl)amino]-2-[(6-methoxy-1,2,3,4-tetrahydroisoquinolin-7-yl)amino]pyrimidine-5-carboxamide] |
| 1.44 | COc1cc2c(cc1Nc1ncc(C(N)=O)c(Nc3ccccc3CN3CCOCC3)n1)CN(C)CC2 [Example 7-99, 2-[(6-methoxy-2-methyl-1,2,3,4-tetrahydroisoquinolin-7-yl)amino]-4-({2-[(morpholin-4-yl)methyl]phenyl}amino)pyrimi-dine-5-carboxamide] |
| 845 | COc1cc2c(cc1Nc1ncc(C(N)=O)c(Nc3ccccc3Br)n1)CN(S(=O)(=O)C1CC1)CC2 [Example 10-8, 4-[(2-bromophenyl)amino]-2-{[2-(cyclopropylsulfonyl)-6-methoxy-1,2,3,4-tetrahydroisoquinolin-7-yl]amino}pyrimidine-5-carboxamide] |
| 443 | Cc1cccc(F)c1Nc1nc(Nc2cnn(CC(C)(C)O)c2)ncc1C(N)=O [Example 4-23, 4-[(2-fluoro-6-methylphenyl)amino]-2-{[1-(2-hydroxy-2-methylpropyl)-1H-pyrazol-4-yl]amino}pyrimidine-5-carboxamide] |
| 1.43 | COc1cc2c(cc1Nc1ncc(C(N)=O)c(N[C@H]3CC[C@H](C)CC3)n1)CN(C)CC2 [Example 26-29, 2-[(6-methoxy-2-methyl-1,2,3,4-tetrahydroisoquinolin-7-yl)amino]-4-[(trans-4-methylcyclohexyl)amino]pyrimidine-5-carboxamide] |
| 40.6 | NC(=O)c1cnc(Nc2cnn(C3CCNCC3)c2)nc1NC1CCc2cc(F)c(F)cc21 (stereo not drawn) [Example 26-50, 4-[(5,6-difluoro-2,3-dihydro-1H-inden-1-yl)amino]-2-{[1-(piperidin-4-yl)-1H-pyrazol-4-yl]amino}pyrimidine-5-carboxamide] |
| 0.51 | COc1cc2c(cc1Nc1ncc(C(N)=O)c(Nc3ccc(F)cc3)n1)CN(C)CC2 [Example 7-21, 4-[(4-fluorophenyl)amino]-2-[(6-methoxy-2-methyl-1,2,3,4-tetrahydroisoquinolin-7-yl)amino]pyrimidine-5-carboxamide] |
| 3.65 | CN1Cc2ccc(Nc3ncc(C(N)=O)c(Nc4cccc5c4CCNC5)n3)cc2C1=O [Example 7-64, 2-[(2-methyl-3-oxo-2,3-dihydro-1H-isoindolin-5-yl)amino]-4-[(1,2,3,4-tetrahydroisoquinolin-5-yl)amino]pyrimidine-5-carboxamide] |
| 246 | COc1cc2c(cc1Nc1ncc(C(N)=O)c(Nc3ccccc3Br)n1)CN(CC(F)(F)F)CC2 [Example 10-2, 4-((2-bromophenyl)amino)-2-((6-methoxy-2-(2,2,2--trifluoroethyl)-1,2,3,4-tetrahydroisoquinolin-7-yl)amino)pyrimidine-5-carboxamide] |
| 0.38 | COc1cc2c(cc1Nc1ncc(C(N)=O)c(Nc3ccc(C)cc3Cl)n1)CN(C)CC2 [Example 4-19, 4-[(2-chloro-4-methylpheny 1)amino]-2-[(6-methoxy-2-methyl-1,2,3,4-tetrahydroisoquinolin-7-yl)amino]pyrimidine-5-carboxamide] |
| 0.5 | COc1cc2c(cc1Nc1ncc(C(N)=O)c(Nc3cccc4nn[nH]c34)n1)CN(C)CC2 [Example 7-5, 4-[(1H-benzotriazol-7-yl)amino]-2-[(6-methoxy-2-methyl-1,2,3,4-tetrahydroisoquinolin-7-yl)amino]pyrimidine-5-carboxamide] |
| 0.09 | COc1cc2c(cc1Nc1ncc(C(N)=O)c(Nc3cccc4c3CCN(C)C4)n1)CN(C)CC2 [Example 16-1, 2-((6-methoxy-2-methyl-1,2,3,4-tetrahydroisoquinolin-7-yl)amino)-4-((2-methyl-1,2,3,4-tetrahydroisoquinolin-5-yl)amino)pyrimidine-5-carboxamide] |
| 67.1 | C=CCCCN1CCc2cc(OC)c(Nc3ncc(C(N)=O)c(Nc4c(F)cc(Br)cc4F)n3)cc2C1 [Example 10-4, 4-(4-bromo-2,6-difluoroanilino)-2-{[6-methoxy-2-(pent-4-en-1-yl)-1,2,3,4-tetrahydroisoquinolin-7-yl]amino}pyrimidine-5-carboxamide] |
| 16.4 | COc1cc2c(cc1Nc1ncc(C(N)=O)c(Nc3ccccc3Br)n1)CN(C(C)C)CC2 [Example 9-8, 4-[(2-bromophenyl)amino]-2-{[6-methoxy-2-(propan-2-yl)-1,2,3,4-tetrahydroisoquinolin-7-yl]amino}pyrimidine-5-carboxamide] |
| 1.62 | COc1cc2c(cc1Nc1ncc(C(N)=O)c(Nc3ccccc3C(F)(F)F)n1)C(C1CC1)N(C)CC2 (single isomer, unassigned) [Example 20-1, 2-((1-cyclopropyl-6-methoxy-2-methyl-1,2,3,4-tetrahydroisoquinolin-7-yl)amino)-4-((2-(trifluoromethyl)phenyl)amino)pyrimidine-5-carboxamide] |
| 91.5 | CS(=O)(=O)c1ccc(Nc2ncc(C(N)=O)c(Nc3c(F)cccc3CO)n2)cc1 [Example 7-65, 4-{[2-fluoro-6-(hydroxymethyl)phenyl]amino}-2-{[4-(methylsulfonyl)phenyl]amino}py-rimidine-5-carboxamide] |
| 27.7 | COc1cc2c(cc1Nc1ncc(C(N)=O)c(Nc3ccccc3Br)n1)CN(C(=O)C1(C(F)(F)F)CCC1)CC2 [Example 12-6, 4-[(2-bromophenyl)amino]-2-({6-methoxy-2-[1-(trifluoromethyl)cyclobutane-1-carbonyl]-1,2,3,4-tetrahydroisoquinolin-7-yl}amino)pyrimidine-5-carboxamide] |
| 0.41 | COc1cc2c(cc1Nc1ncc(C(N)=O)c(Nc3cccc(C4(C#N)CC4)c3)n1)CN(C)CC2 [Example 7-32, 4-{[3-(1-cyanocyclopropyl)phenyl]amino}-2-[(6-methoxy-2-methyl-1,2,3,4-tetrahydroisoquinolin-7-yl)amino]pyrimidine-5-carboxamide] |
| 0.14 | NC(=O)c1cnc(Nc2ccc3c(c2)COCC3)nc1Nc1cccc2c1CCNC2 [Example 7-16, 2-[(3,4-dihydro-1H-2-benzopyran-7-yl)amino]-4-[(1,2,3,4-tetrahydroisoquinolin-5-yl)amino]pyrimidine-5-carboxamide] |
| 1.49 | COc1cc2c(cc1Nc1ncc(C(N)=O)c(Nc3cccc(Br)c3)n1)CN(C)CC2 [Example 7-71, 4-[(3-bromophenyl)amino]-2-[(6-methoxy-2-methyl-1,2,3,4-tetrahydroisoquinolin-7-yl)amino]pyrimidine-5-carboxamide] |
| 13.9 | COc1cc(C2CNC2)ccc1Nc1ncc(C(N)=O)c(Nc2ccccc2Br)n1 [Example 8-4, 2-((4-(azetidin-3-yl)-2-methoxyphenyl)amino)-4-((2-bromophenyl)amino)pyrimidine-5-carboxamide] |
| 193 | COc1cc2c(cc1Nc1ncc(C(N)=O)c(N[C@H]3c4ccccc4C[C@@H]3O)n1)CN(C)CC2 [Example 26-66, 4-{[(1S,2S)-2-hydroxy-2,3-dihydro-1H-inden-1-yl]amino}-2-[(6-methoxy-2-methyl-1,2,3,4-tetrahydroisoquinolin-7-yl)amino]pyrimidine-5-carboxamide] |
| 30 | N#CC1(c2ccc(Nc3ncc(C(N)=O)c(Nc4ccccc4Br)n3)cc2)CC1 [Example 7-100, 4-[(2-bromophenyl)amino]-2-{[4-(1-cyanocyclopropyl)phenyl]amino} pyrimidine-5-carboxamide] |
